{"source": "patent US20100056483A1", "about": "“METHODS AND COMPOSITIONS FOR THE TREATMENT AND PREVENTION OF BONE LOSS” (OHIO UNIVERSITY, priority 2008, published 2010)", "key": {"[1]": {"conditions": "broad-spectrum divalent-cation chelator; cited from earlier work"}, "[2]": {"conditions": "OVX rats; 200 mg/kg/day CaEDTA intraperitoneal; weighed weekly", "procedure": "The temperature inside the chambers was 22° C. (±2) with relative humidity from 40 to 60%.\nThe rats were weighed and euthanized with carbon dioxide."}}}
{"smiles": "O=C(O)CN(CCN(CC(=O)O)CC(=O)O)CC(=O)O.[Ca]", "note": "[CaEDTA, Calcium ethylenediaminetetra-acetic acid]", "values": [{"measurement": "Affinity for zinc relative to calcium", "setting": "[1]", "value": "binds zinc with higher affinity than Calcium"}, {"measurement": "Effect on body weight", "setting": "[2]", "value": "no effect on body weight"}]}
